Columns and labels:
[1] = molecular target: T1, PTPN2 (HiBIT-PTPN2 in 293T.109 cells) (Homo sapiens, UniProt P17706); assay: HiBiT Degradation 293T.109 PTPN2 (Nano-Glo HiBiT Lytic Assay); format: cell-based; conditions: 24.0 hours
T1 construct: expressed in transfected cells; host or cells: 293T.109 (293T WT from ATCC)
T1 sequence (P17706 1-415): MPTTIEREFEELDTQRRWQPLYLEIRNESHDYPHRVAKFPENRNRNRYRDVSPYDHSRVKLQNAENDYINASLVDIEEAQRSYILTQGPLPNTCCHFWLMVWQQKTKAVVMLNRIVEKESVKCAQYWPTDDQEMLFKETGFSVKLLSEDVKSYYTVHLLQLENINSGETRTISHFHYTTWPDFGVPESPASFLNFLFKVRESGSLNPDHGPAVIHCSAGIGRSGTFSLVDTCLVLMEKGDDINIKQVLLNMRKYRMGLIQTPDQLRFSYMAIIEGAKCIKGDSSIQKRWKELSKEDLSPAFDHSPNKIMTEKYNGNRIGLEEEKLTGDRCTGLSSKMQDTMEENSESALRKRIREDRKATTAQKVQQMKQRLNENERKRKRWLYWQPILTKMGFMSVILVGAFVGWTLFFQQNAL
In short: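 293T.109 cells with ectopic N-terminal HiBiT-tagged PTPN2 (5000/well) exposed to compounds for 24 h at 37 °C, 5% CO2; 11-point half-log titration from 10 μM top, duplicates. Remaining HiBiT-PTPN2 read as luminescence with Nano-Glo HiBiT lytic reagent, normalised to untreated cells (0%) and reagent-free wells.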

PTPN2 (B16F10.4 cells) = molecular target: T2, PTPN2 (B16F10.4 cells) (Mus musculus, UniProt Q06180); assay: HiBiT Degradation B16F10.4 PTPN2; format: cell-based; conditions: 24.0 hours
T2 construct: HiBiT; host or cells: B16F10.4
T2 sequence (Q06180 1-406): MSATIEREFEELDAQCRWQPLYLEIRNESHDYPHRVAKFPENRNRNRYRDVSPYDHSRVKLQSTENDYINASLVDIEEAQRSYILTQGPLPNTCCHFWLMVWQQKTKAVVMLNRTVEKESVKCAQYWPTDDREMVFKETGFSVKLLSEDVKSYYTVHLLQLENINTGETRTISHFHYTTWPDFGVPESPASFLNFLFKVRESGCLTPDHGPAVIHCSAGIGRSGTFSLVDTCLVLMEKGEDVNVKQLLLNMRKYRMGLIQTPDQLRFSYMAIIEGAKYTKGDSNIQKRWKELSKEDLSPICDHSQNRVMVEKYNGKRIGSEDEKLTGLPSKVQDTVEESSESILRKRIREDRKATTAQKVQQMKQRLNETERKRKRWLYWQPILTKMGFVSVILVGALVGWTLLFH

CC1(C)C[C@@H](Nc2cccc(-c3sc(C(=O)O)c(OCC(=O)O)c3Cl)c2)CCN1S(=O)(=O)Cc1cccc(NC(=O)NCCCc2cc3c4c(cccc4c2)N(C2CCC(=O)NC2=O)C3=O)c1 (stereo partly drawn) [Example 215, 3-(carboxymethoxy)-4-chloro-5-[3-[[(4S)-1-[[3-[3-[1-(2,6-dioxo-3-piperidyl)-2-oxo-benzo[cd]indol-4-yl]propylcarbamoylamino]phenyl]methylsulfonyl]-2,2-dimethyl-4-piperidyl]amino]phenyl]thiophene-2-carboxylic acid]
DC50 [1]: 50 to 200 nM
DC50 (PTPN2 (B16F10.4 cells)): 200 to 1000 nM

CC1(C)C[C@@H](Nc2cccc(-c3sc(C(=O)O)c(OCC(=O)O)c3Cl)c2)CCN1S(=O)(=O)Cc1cccc(NC(=O)C2CCN(c3ccc4c5c(cccc35)N(C3CCC(=O)NC3=O)C4=O)CC2)c1 (stereo partly drawn) [Example 216]
DC50 [1]: < 50 nM
DC50 (PTPN2 (B16F10.4 cells)): 50 to 200 nM

CC1(C)C[C@@H](Nc2cccc(-c3sc(C(=O)O)c(OCC(=O)O)c3Cl)c2)CCN1S(=O)(=O)Cc1cccc(NC(=O)N2CCC(c3cnc4c(c3)c3ccccc3n4C3CCC(=O)NC3=O)CC2)c1 (stereo partly drawn) [Example 218, 3-(carboxymethoxy)-4-chloro-5-[3-[[(4S)-1-[[3-[[4-[9-(2,6-dioxo-3-piperidyl)pyrido[2,3-b]indol-3-yl]piperidine-1-carbonyl]amino]phenyl]methylsulfonyl]-2,2-dimethyl-4-piperidyl]amino]phenyl]thiophene-2-carboxylic acid]
DC50 [1]: 200 to 1000 nM
DC50 (PTPN2 (B16F10.4 cells)): 200 to 1000 nM

CC1(C)C[C@@H](Nc2cccc(-c3sc(C(=O)O)c(OCC(=O)O)c3Cl)c2)CCN1S(=O)(=O)Cc1cccc(NC(=O)NCCC2CCN(c3ccc4c5c(cccc35)C(=O)N4C3CCC(=O)NC3=O)CC2)c1 (stereo partly drawn) [Example 219, 3-(carboxymethoxy)-4-chloro-5-(3-(((4S)-1-((3-(3-(2-(1-(1-(2,6-dioxopiperidin-3-yl)-2-oxo-1,2-dihydrobenzo[cd]indol-6-yl)piperidin-4-yl)ethyl)ureido)benzyl)sulfonyl)-2,2-dimethylpiperidin-4-yl)amino)phenyl)thiophene-2-carboxylic acid]
DC50 [1]: 50 to 200 nM
DC50 (PTPN2 (B16F10.4 cells)): < 50 nM

CC1(C)C[C@@H](Nc2cccc(-c3sc(C(=O)O)c(OCC(=O)O)c3Cl)c2)CCN1S(=O)(=O)Cc1cccc(NC(=O)CCC(=O)NCc2ccc3c4c(cccc24)C(=O)N3C2CCC(=O)NC2=O)c1 (stereo partly drawn) [Example 220, 3-(carboxymethoxy)-4-chloro-5-(3-(((4S)-1-((3-(4-(((1-(2,6-dioxopiperidin-3-yl)-2-oxo-1,2-dihydrobenzo[cd]indol-6-yl)methyl)amino)-4-oxobutanamido)benzyl)sulfonyl)-2,2-dimethylpiperidin-4-yl)amino)phenyl)thiophene-2-carboxylic acid]
DC50 [1]: 50 to 200 nM
DC50 (PTPN2 (B16F10.4 cells)): 50 to 200 nM

Cn1c(=O)n(C2CCC(=O)NC2=O)c2ccc(CN3CCN(C(=O)Nc4cccc(CS(=O)(=O)N5CC[C@H](Nc6cccc(-c7sc(C(=O)O)c(OCC(=O)O)c7Cl)c6)CC5(C)C)c4)CC3)cc21 (stereo partly drawn) [Example 221, 3-(carboxymethoxy)-4-chloro-5-[3-[[(4S)-1-[[3-[[4-[[1-(2,6-dioxo-3-piperidyl)-3-methyl-2-oxo-benzimidazol-5-yl]methyl]piperazine-1-carbonyl]amino]phenyl]methylsulfonyl]-2,2-dimethyl-4-piperidyl]amino]phenyl]thiophene-2-carboxylic acid]
DC50 [1]: 200 to 1000 nM
DC50 (PTPN2 (B16F10.4 cells)): 200 to 1000 nM

Cn1c(=O)n(C2CCC(=O)NC2=O)c2ccc3c(c21)CCCN3C1CCN(C(=O)Nc2cccc(CS(=O)(=O)N3CC[C@H](Nc4cccc(-c5sc(C(=O)O)c(OCC(=O)O)c5Cl)c4)CC3(C)C)c2)CC1 (stereo partly drawn) [Example 222, 3-(carboxymethoxy)-4-chloro-5-[3-[[(4S)-1-[[3-[[4-[3-(2,6-dioxo-3-piperidyl)-1-methyl-2-oxo-8,9-dihydro-7H-imidazo[4,5-f]quinolin-6-yl]piperidine-1-carbonyl]amino]phenyl]methylsulfonyl]-2,2-dimethyl-4-piperidyl]amino]phenyl]thiophene-2-carboxylic acid]
DC50 [1]: 50 to 200 nM
DC50 (PTPN2 (B16F10.4 cells)): 50 to 200 nM

CC1(C)C[C@@H](Nc2cccc(-c3sc(C(=O)O)c(OCC(=O)O)c3Cl)c2)CCN1S(=O)(=O)Cc1cccc(NC(=O)N2CCC[C@H](c3ccc4c5c(cccc35)N(C3CCC(=O)NC3=O)C4=O)CC2)c1 (stereo partly drawn) [Example 223, 3-(carboxymethoxy)-4-chloro-5-(3-(((4S)-1-((3-((4S)-4-(1-(2,6-dioxopiperidin-3-yl)-2-oxo-1,2-dihydrobenzo[cd]indol-5-yl)azepane-1-carboxamido)benzyl)sulfonyl)-2,2-dimethylpiperidin-4-yl)amino)phenyl)thiophene-2-carboxylic acid]
DC50 [1]: 200 to 1000 nM
DC50 (PTPN2 (B16F10.4 cells)): 50 to 200 nM

CC1(C)C[C@@H](Nc2cccc(-c3sc(C(=O)O)c(OCC(=O)O)c3Cl)c2)CCN1S(=O)(=O)Cc1cccc(NC(=O)N2CCC[C@@H](c3ccc4c5c(cccc35)N(C3CCC(=O)NC3=O)C4=O)CC2)c1 (stereo partly drawn) [Example 224, 3-(carboxymethoxy)-4-chloro-5-(3-(((4S)-1-((3-((4R)-4-(1-(2,6-dioxopiperidin-3-yl)-2-oxo-1,2-dihydrobenzo[cd]indol-5-yl)azepane-1-carboxamido)benzyl)sulfonyl)-2,2-dimethylpiperidin-4-yl)amino)phenyl)thiophene-2-carboxylic acid]
DC50 [1]: 50 to 200 nM
DC50 (PTPN2 (B16F10.4 cells)): 50 to 200 nM

Cn1c(=O)n(C2CCC(=O)NC2=O)c2ccc(C3CCN(C(=O)Nc4cccc(CS(=O)(=O)N5CC[C@H](Oc6cccc(-c7sc(C(=O)O)c(OCC(=O)O)c7Cl)c6)CC5(C)C)c4)CC3)cc21 (stereo partly drawn) [Example 225, 3-(carboxymethoxy)-4-chloro-5-(3-(((4S)-1-((3-(4-(1-(2,6-dioxopiperidin-3-yl)-3-methyl-2-oxo-2,3-dihydro-1H-benzo[d]imidazol-5-yl)piperidine-1-carboxamido)benzyl)sulfonyl)-2,2-dimethylpiperidin-4-yl)oxy)phenyl)thiophene-2-carboxylic acid]
DC50 [1]: 200 to 1000 nM
DC50 (PTPN2 (B16F10.4 cells)): 50 to 200 nM

Cn1c(=O)n(C2CCC(=O)NC2=O)c2ccc(C3CCN(C(=O)Nc4cccc(CS(=O)(=O)N5CC[C@@H](Oc6cccc(-c7sc(C(=O)O)c(OCC(=O)O)c7Cl)c6)CC5(C)C)c4)CC3)cc21 (stereo partly drawn) [Example 226, 3-(carboxymethoxy)-4-chloro-5-(3-(((4R)-1-((3-(4-(1-(2,6-dioxopiperidin-3-yl)-3-methyl-2-oxo-2,3-dihydro-1H-benzo[d]imidazol-5-yl)piperidine-1-carboxamido)benzyl)sulfonyl)-2,2-dimethylpiperidin-4-yl)oxy)phenyl)thiophene-2-carboxylic acid]
DC50 [1]: 200 to 1000 nM
DC50 (PTPN2 (B16F10.4 cells)): 50 to 200 nM

CC1(C)C[C@H](Oc2cccc(-c3sc(C(=O)O)c(OCC(=O)O)c3Cl)c2)CCN1S(=O)(=O)Cc1cccc(NC(=O)N2CCC(c3ccc4c5c(cccc35)C(=O)N4C3CCC(=O)NC3=O)CC2)c1 (stereo partly drawn) [Example 227, 3-(carboxymethoxy)-4-chloro-5-(3-(((4R)-1-((3-(4-(1-(2,6-dioxopiperidin-3-yl)-2-oxo-1,2-dihydrobenzo[cd]indol-6-yl)piperidine-1-carboxamido)benzyl)sulfonyl)-2,2-dimethylpiperidin-4-yl)oxy)phenyl)thiophene-2-carboxylic acid]
DC50 [1]: 200 to 1000 nM
DC50 (PTPN2 (B16F10.4 cells)): 50 to 200 nM

Reference: US20250302815A1, “PROTEIN TYROSINE PHOSPHATASE TARGETING LIGANDS” (CALICO LIFE SCIENCES LLC, priority 2021, published 2025)
